Assay results: the supplement of paper PMC10307832

How the values were obtained:
Assay in all cases: relative viability (nuclei count vs DMSO), 5 days (fraction); higher = more cells survive
Metformin + OSI-027 = compound: CN(C)C(=N)NC(=N)N [Metformin] + COc1cccc2cc(-c3nc([C@H]4CC[C@H](C(=O)O)CC4)n4ncnc(N)c34)[nH]c12 [OSI-027] (partner 0.5 µM)
Procedure, shortened: (§1)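 Lung cancer cell lines were seeded in 1536-well plates and dosed by pin tool the next day, with either a single drug or a fixed anchor-drug dose combined with five library-drug doses (not always all listed) spaced in √10 steps. Five days later, one step fixed the cells and stained their nuclei (final 0.05% Triton X-100, 1% formaldehyde, 1 ug/ml Hoechst), and nuclei were counted on 4× images. Relative viability is the nuclei count in treated wells divided by the count in vehicle wells, and each value is the median of duplicate plates.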

Metformin + Pictilisib = compound: CN(C)C(=N)NC(=N)N [Metformin] + CS(=O)(=O)N1CCN(Cc2cc3nc(-c4cccc5[nH]ncc45)nc(N4CCOCC4)c3s2)CC1 [Pictilisib] (partner 1 µM)
Procedure, shortened: as §1

Metformin + Linsitinib = compound: CN(C)C(=N)NC(=N)N [Metformin] + C[C@]1(O)C[C@@H](c2nc(-c3ccc4ccc(-c5ccccc5)nc4c3)c3c(N)nccn32)C1 [Linsitinib] (partner 1 µM)
Procedure, shortened: as §1

Metformin + Tozasertib = compound: CN(C)C(=N)NC(=N)N [Metformin] + Cc1cc(Nc2cc(N3CCN(C)CC3)nc(Sc3ccc(NC(=O)C4CC4)cc3)n2)n[nH]1 [Tozasertib] (partner 0.1 µM)
Procedure, shortened: as §1

Cell Line | relative viability (Metformin + OSI-027; first compound 10 µM) | relative viability (Metformin + OSI-027; first compound 31.62 µM) | relative viability (Metformin + OSI-027; first compound 100 µM) | relative viability (Metformin + OSI-027; first compound 316.23 µM) | relative viability (Metformin + OSI-027; first compound 1000 µM) | relative viability (Metformin + Pictilisib; first compound 10 µM) | relative viability (Metformin + Pictilisib; first compound 31.62 µM) | relative viability (Metformin + Pictilisib; first compound 100 µM) | relative viability (Metformin + Pictilisib; first compound 316.23 µM) | relative viability (Metformin + Pictilisib; first compound 1000 µM) | relative viability (Metformin + Linsitinib; first compound 10 µM) | relative viability (Metformin + Linsitinib; first compound 31.62 µM) | relative viability (Metformin + Linsitinib; first compound 100 µM) | relative viability (Metformin + Linsitinib; first compound 316.23 µM) | relative viability (Metformin + Linsitinib; first compound 1000 µM) | relative viability (Metformin + Tozasertib; first compound 10 µM) | relative viability (Metformin + Tozasertib; first compound 31.62 µM) | relative viability (Metformin + Tozasertib; first compound 100 µM) | relative viability (Metformin + Tozasertib; first compound 316.23 µM) | relative viability (Metformin + Tozasertib; first compound 1000 µM)
NCI-H1755 | 0.614 | 0.729 | 0.701 | 0.636 | 0.579 | 0.366 | 0.402 | 0.471 | 0.412 | 0.336 | 0.842 | 0.84 | 0.871 | 0.843 | 0.914 | 0.446 | 0.519 | 0.474 | 0.509 | 0.497
EPLC-272H | 0.294 | 0.269 | 0.262 | 0.293 | 0.335 | 0.362 | 0.314 | 0.364 | 0.305 | 0.302 | 1.39 | 1.39 | 1.26 | 1.08 | 1.51 | 0.292 | 0.212 | 0.288 | 0.192 | 0.238
NCI-H23 | 0.594 | 0.665 | 0.559 | 0.523 | 0.664 | 0.505 | 0.604 | 0.527 | 0.614 | 0.654 | 0.701 | 0.623 | 0.705 | 0.675 | 0.763 | 0.382 | 0.49 | 0.433 | 0.445 | 0.498
LCLC-103H | 0.51 | 0.624 | 0.555 | 0.461 | 0.506 | 0.713 | 0.717 | 0.711 | 0.669 | 0.607 | 1.05 | 1.26 | 1.06 | 1.12 | 1.19 | 0.557 | 0.627 | 0.568 | 0.556 | 0.592
NCI-H1944 | 0.428 | 0.401 | 0.402 | 0.425 | 0.455 | 0.324 | 0.351 | 0.371 | 0.293 | 0.338 | 1.36 | 1.39 | 1.34 | 1.27 | 1.26 | 0.314 | 0.279 | 0.288 | 0.245 | 0.297
COR-L23 | 0.644 | 0.68 | 0.571 | 0.605 | 0.782 | 0.756 | 0.886 | 0.754 | 0.707 | 0.759 | 0.821 | 0.828 | 0.9 | 0.77 | 0.843 | 0.183 | 0.193 | 0.187 | 0.164 | 0.176
COR-L 105 | 0.736 | 0.895 | 0.736 | 0.773 | 0.521 | 0.401 | 0.488 | 0.478 | 0.463 | 0.333 | 1.06 | 1.23 | 0.977 | 0.87 | 0.815 | 0.355 | 0.336 | 0.37 | 0.307 | 0.321
HCC-15 |  | 0.812 | 0.655 | 0.586 | 0.678 | 0.625 | 0.789 | 0.746 | 0.75 | 0.823 | 0.877 | 0.965 | 0.953 | 0.857 | 0.947 |  | 0.489 | 0.395 | 0.412 | 0.521
NCI-H1666 | 0.97 | 0.974 | 1.05 | 0.99 | 0.939 | 0.481 | 0.536 | 0.352 | 0.356 | 0.467 | 0.863 | 1 | 0.962 | 0.703 | 1.09 | 0.625 | 0.649 | 0.703 | 0.711 | 0.725
HCC-78 | 0.466 | 0.49 | 0.362 | 0.426 | 0.422 | 0.291 | 0.257 | 0.201 | 0.159 | 0.244 | 0.842 | 0.927 | 0.877 | 0.681 | 0.927 | 0.637 | 0.571 | 0.487 | 0.4 | 0.629
A-427 | 0.45 | 0.493 | 0.44 | 0.458 | 0.492 | 0.79 | 0.896 | 0.713 | 0.68 | 0.763 | 1.09 | 1.13 | 1.09 | 1.1 | 1.04 | 0.225 | 0.255 | 0.224 | 0.185 | 0.245
NCI-H596 | 1.04 | 0.84 | 0.85 | 0.636 | 0.988 | 0.431 | 0.479 | 0.468 | 0.452 | 0.421 | 1.11 | 1.18 | 1.32 | 1.08 | 1.25 | 0.955 | 0.93 | 1.1 | 0.985 | 0.938
EMC-BAC-2 | 0.419 | 0.397 | 0.365 | 0.399 | 0.356 | 0.475 | 0.536 | 0.528 | 0.523 | 0.523 | 0.795 | 0.812 | 0.799 | 0.783 | 0.853 | 0.29 | 0.307 | 0.317 | 0.289 | 0.32
NCI-H2126 | 0.682 | 0.725 | 0.8 | 0.787 | 0.656 | 0.519 | 0.474 | 0.514 | 0.472 | 0.485 | 0.633 | 0.735 | 0.687 | 0.703 | 0.721 | 0.764 | 0.834 | 0.824 | 0.525 | 0.53
NCI-H1437 | 1.21 | 1.23 | 1.06 | 1 | 1.04 | 0.671 | 0.729 | 0.406 | 0.629 | 0.757 | 1.22 | 1.09 | 1.11 | 1.1 | 1.19 | 0.403 | 0.44 | 0.405 | 0.411 | 0.418
LXF-289 | 0.764 | 0.737 | 0.738 | 0.721 | 0.735 | 0.73 | 0.685 | 0.746 | 0.661 | 0.76 | 0.923 | 0.912 | 0.996 | 0.879 | 0.915 | 0.191 | 0.179 | 0.206 | 0.174 | 0.19
LK-2 | 0.194 | 0.169 | 0.199 | 0.195 | 0.209 | 0.707 | 0.757 | 0.811 | 0.61 | 0.769 | 0.906 | 0.996 | 0.948 | 0.694 | 0.81 | 0.163 | 0.189 | 0.183 | 0.174 | 0.174
